Experimental data published in patent US20230107642A1 (Erasca, Inc., priority 2020, published 2023).

What follows are compounds tested against T1, K-Ras G12C (Homo sapiens, UniProt P01116, G12C) (assay: CAF assay (% CAF; method in Example 7, not in this part)). Conditions: 10 uM compound, 1 h incubation.
T1 construct: This protein contained 188 amino acids in total, including an N-terminal 6-Histidine tag; made in house; host or cells: E. coli BL21
Assay type: binding

In order of falling “% CAF @ 10 uM, 1h” value:
1. C=CC(=O)N1C[C@H](C)N(c2nc(=O)n3c4c(c(-c5ccc(F)cc5F)c(C(F)(F)F)cc24)SC[C@@H]3CN2CCN(C3CC3)CC2)C[C@H]1C (single isomer, unassigned) [Example 581]  97.4%
2. C=CC(=O)N1CCN(c2nc(=O)n3c4c(c(-c5ccc(F)cc5F)c(C(F)(F)F)cc24)SC[C@@H]3COC)CC1 (atropisomer, axis not shown) [Example 579, (3S,10S)-7-(4-acryloylpiperazin-1-yl)-10-(2,4-difluorophenyl)-3-(methoxymethyl)-9-(trifluoromethyl)-2,3-dihydro-5H-[1,4]thiazino[2,3,4-ij]quinazolin-5-one]  96.9%
3. C=CC(=O)N1C[C@H](C)N(c2nc(=O)n3c4c(c(-c5ccc(F)cc5F)c(C(F)(F)F)cc24)SC[C@@H]3CN2CCN(C3CC3)CC2)C[C@H]1C (single isomer, unassigned) [Example 580]  91.5%

Same assay, conditions: 10 uM, 60 min; Table 2a

In order of falling “% CAF 10 uM @ 60 min” value:
1. C=CC(=O)N1CCN(c2nc(=O)n3c4c(c(-c5cc(F)cc(F)c5)c(Cl)cc24)SCC3)[C@@H](C)C1 [Example 66, (S)-7-(4-acryloyl-2-methylpiperazin-1-yl)-9-chloro-10-(3,5-difluorophenyl)-2,3-dihydro-5H-[1,4]thiazino[2,3,4-ij]quinazolin-5-one]  91%
2. C[C@H]1CN(C(=O)/C=C/C(F)F)CCN1c1nc(=O)n2c3c(c(-c4cc(F)cc(F)c4)c(Cl)cc13)SCC2 [Example 67, (S,E)-9-chloro-7-(4-(4,4-difluorobut-2-enoyl)-2-methylpiperazin-1-yl)-10-(3,5-difluorophenyl)-2,3-dihydro-5H-[1,4]thiazino[2,3,4-ij]quinazolin-5-one]  87%
3. C[C@H]1CN(C(=O)/C=C/C(F)F)CCN1c1nc(=O)n2c3c(c(-c4cc(F)cc(Cl)c4)c(Cl)cc13)SCC2 [Example 63, (S,E)-9-chloro-10-(3-chloro-5-fluorophenyl)-7-(4-(4,4-difluorobut-2-enoyl)-2-methylpiperazin-1-yl)-2,3-dihydro-5H-[1,4]thiazino[2,3,4-ij]quinazolin-5-one]  75%
4. C[C@H]1CN(C(=O)/C=C/C(F)(F)F)CCN1c1nc(=O)n2c3c(c(-c4cc(F)cc(Cl)c4)c(Cl)cc13)SCC2 [Example 65]  70%
5. C=CC(=O)N1CCN(c2nc(=O)n3c4c(c(-c5cc(C6CC6)ccc5F)c(Cl)cc24)SCC3)[C@@H](C)C1 [Example 62a, 7-((S)-4-acryloyl-2-methylpiperazin-1-yl)-9-chloro-10-(5-cyclopropyl-2-fluorophenyl)-2,3-dihydro-5H-[1,4]thiazino[2,3,4-ij]quinazolin-5-one]  67%
6. C=C(F)C(=O)N1CCN(c2nc(=O)n3c4c(c(-c5cc(F)cc(Cl)c5)c(Cl)cc24)SCC3)[C@@H](C)C1 [Example 64, (S)-9-chloro-10-(3-chloro-5-fluorophenyl)-7-(4-(2-fluoroacryloyl)-2-methylpiperazin-1-yl)-2,3-dihydro-5H-[1,4]thiazino[2,3,4-ij]quinazolin-5-one]  3%

Same assay, conditions: 10 uM, 1 h; Table 3

In order of rising “% CAF @ 10 uM, 1h” value:
1. C[C@H]1CN(C(=O)/C=C/C(F)(F)F)CCN1c1nc(=O)n2c3c(c(-c4cc(F)cc(Cl)c4)c(Cl)cc13)SCC2 [Example 65]  3%
2. C=C(F)C(=O)N1CCN(c2nc(=O)n3c4c(c(-c5ccc(Cl)c(F)c5)c(Cl)cc24)SCC3)[C@@H](C)C1 [Example 78, (S)-9-chloro-10-(4-chloro-3-fluorophenyl)-7-(4-(2-fluoroacryloyl)-2-methylpiperazin-1-yl)-2,3-dihydro-5H-[1,4]thiazino[2,3,4-ij]quinazolin-3-one]  6.7%
3. C=CC(=O)N1C2CN(c3nc(=O)n4c5c(c(-c6ccc(F)cc6F)c(Cl)cc35)SCC4)CC1CS(=O)(=O)C2 [Example 84, 7-(9-acryloyl-3,3-dioxido-3-thia-7,9-diazabicyclo[3.3.1]nonan-7-yl)-9-chloro-10-(2,4-difluorophenyl)-2,3-dihydro-5H-[1,4]thiazino[2,3,4-ij]quinazolin-5-one]  43.8%
4. C[C@H]1CN(C(=O)/C=C/C(F)F)CCN1c1nc(=O)n2c3c(c(-c4cc(F)cc(Cl)c4)c(Cl)cc13)SCC2 [Example 63, (S,E)-9-chloro-10-(3-chloro-5-fluorophenyl)-7-(4-(4,4-difluorobut-2-enoyl)-2-methylpiperazin-1-yl)-2,3-dihydro-5H-[1,4]thiazino[2,3,4-ij]quinazolin-5-one]  67%
5. C=CC(=O)N1CCN(c2nc(=O)n3c4c(c(-c5cc(F)cc(F)c5)c(Cl)cc24)SCC3)[C@@H](C)C1 [Example 66, (S)-7-(4-acryloyl-2-methylpiperazin-1-yl)-9-chloro-10-(3,5-difluorophenyl)-2,3-dihydro-5H-[1,4]thiazino[2,3,4-ij]quinazolin-5-one]  70%
6. C=CC(=O)N1CCN(c2nc(=O)n3c4c(c(-c5cc(F)cc(Cl)c5)c(Cl)cc24)SCC3)[C@@H](C)C1 [Example 73, (S)-7-(4-acryloyl-2-methylpiperazin-1-yl)-9-chloro-10-(3-chloro-5-fluorophenyl)-2,3-dihydro-5H-[1,4]thiazino[2,3,4-ij]quinazolin-5-one]  73%
7. C=C(F)C(=O)N1CCN(c2nc(=O)n3c4c(c(-c5cc(F)cc(Cl)c5)c(Cl)cc24)SCC3)[C@@H](C)C1 [Example 64, (S)-9-chloro-10-(3-chloro-5-fluorophenyl)-7-(4-(2-fluoroacryloyl)-2-methylpiperazin-1-yl)-2,3-dihydro-5H-[1,4]thiazino[2,3,4-ij]quinazolin-5-one]  75%
8. C=CC(=O)N1C2CN(C(C)=O)CC1CN(c1nc(=O)n3c4c(c(-c5ccc(F)cc5F)c(Cl)cc14)SCC3)C2 [Example 72]  80.5%
9. C=CC(=O)N1CCN(c2nc(=O)n3c4c(c(-c5ccc(F)cc5F)c(Cl)cc24)SCC3)C[C@H]1C#N [Example 77, (2S)-1-acryloyl-4-(9-chloro-10-(2,4-difluorophenyl)-5-oxo-2,3-dihydro-5H-[1,4]thiazino[2,3,4-ij]quinazolin-7-yl)piperazine-2-carbonitrile]  82%
10. C=CC(=O)N1CCN(c2nc(=O)n3c4c(c(-c5ccc(F)c(C#N)c5)c(Cl)cc24)SCC3)[C@@H](C)C1 [Example 83, (S)-5-(7-(4-acryloyl-2-methylpiperazin-1-yl)-9-chloro-5-oxo-2,3-dihydro-5H-[1,4]thiazino[2,3,4-ij]quinazolin-10-yl)-2-fluorobenzonitrile]  85.3%
11. C=CC(=O)N1CCN(c2nc(=O)n3c4c(c(-c5cc(Cl)c(F)cc5F)c(Cl)cc24)SCC3)[C@@H](C)C1 [Example 82, 7-((S)-4-acryloyl-2-methylpiperazin-1-yl)-9-chloro-10-(5-chloro-2,4-difluorophenyl)-2,3-dihydro-5H-[1,4]thiazino[2,3,4-ij]quinazolin-5-one]  85.8%
12. C=CC(=O)N1CCN(c2nc(=O)n3c4c(c(-c5ccc(F)cc5F)c(Cl)cc24)SC(C)(C)C3)[C@@H](C)C1 [Example 75, 7-((S)-4-acryloyl-2-methylpiperazin-1-yl)-9-chloro-10-(2,4-difluorophenyl)-2,2-dimethyl-2,3-dihydro-5H-[1,4]thiazino[2,3,4-ij]quinazolin-5-one]  86.8%
13. C=CC(=O)N1CCN(c2nc(=O)n3c4c(c(-c5ccc(F)cc5)c(Cl)cc24)SC[C@H]3CC2CCN(CC(F)F)CC2)[C@@H](C)C1 [Example 68, (R)-7-((S)-4-acryloyl-2-methylpiperazin-1-yl)-9-chloro-3-((1-(2,2-difluoroethyl)piperidin-4-yl)methyl)-10-(4-fluorophenyl)-2,3-dihydro-5H-[1,4]thiazino[2,3,4-ij]quinazolin-5-one]  87%
14. C=CC(=O)N1CCN(c2nc(=O)n3c4c(c(-c5cccc6ccncc56)c(Cl)cc24)SCC3)[C@@H](C)C1 [Example 71, 7-((S)-4-acryloyl-2-methylpiperazin-1-yl)-9-chloro-10-(isoquinolin-8-yl)-2,3-dihydro-5H-[1,4]thiazino[2,3,4-ij]quinazolin-5-one]  87.8%
15. N#CC[C@H]1CN(c2nc(=O)n3c4c(c(-c5ccc(F)cc5F)c(Cl)cc24)SCC3)CCN1C(=O)/C=C/C(F)(F)F [Example 81, 2-((2S)-4-(9-chloro-10-(2,4-difluorophenyl)-5-oxo-2,3-dihydro-5H-[1,4]thiazino[2,3,4-ij]quinazolin-7-yl)-1-((E)-4,4,4-trifluorobut-2-enoyl)piperazin-2-yl)acetonitrile]  89%
16. C[C@H]1CN(C(=O)/C=C/C(F)F)CCN1c1nc(=O)n2c3c(c(-c4cc(F)cc(F)c4)c(Cl)cc13)SCC2 [Example 67, (S,E)-9-chloro-7-(4-(4,4-difluorobut-2-enoyl)-2-methylpiperazin-1-yl)-10-(3,5-difluorophenyl)-2,3-dihydro-5H-[1,4]thiazino[2,3,4-ij]quinazolin-5-one]  91%
17. C[C@H]1CN(C(=O)/C=C/C(F)(F)F)CCN1c1nc(=O)n2c3c(c(-c4ccc(Cl)c(F)c4)c(Cl)cc13)SCC2 [Example 79, (S,E)-9-chloro-10-(4-chloro-3-fluorophenyl)-7-(2-methyl-4-(4,4,4-trifluorobut-2-enoyl)piperazin-1-yl)-2,3-dihydro-5H-[1,4]thiazino[2,3,4-ij]quinazolin-5-one]  92%
18. C[C@H]1CN(C(=O)/C=C/C(F)F)CCN1c1nc(=O)n2c3c(c(-c4ccc(Cl)c(F)c4)c(Cl)cc13)SCC2 [Example 80, (S,E)-9-chloro-10-(4-chloro-3-fluorophenyl)-7-(4-(4,4-difluorobut-2-enoyl)-2-methylpiperazin-1-yl)-2,3-dihydro-5H-[1,4]thiazino[2,3,4-ij]quinazolin-5-one]  93.5%
19. C=CC(=O)N1CCN(c2nc(=O)n3c4c(c(-c5cccc(F)c5F)c(Cl)cc24)SCC3)[C@@H](C)C1 [Example 74, 7-((S)-4-acryloyl-2-methylpiperazin-1-yl)-9-chloro-10-(2,3-difluorophenyl)-2,3-dihydro-5H-[1,4]thiazino[2,3,4-ij]quinazolin-5-one]  95.6%
20. C=CC(=O)N1CCN(c2nc(=O)n3c4c(c(-c5ccc(F)cc5F)c(Cl)cc24)SC[C@H]3CC2CCN(CC(F)F)CC2)[C@@H](C)C1 [Example 69, (3R)-7-((S)-4-acryloyl-2-methylpiperazin-1-yl)-9-chloro-3-((1-(2,2-difluoroethyl)piperidin-4-yl)methyl)-10-(2,4-difluorophenyl)-2,3-dihydro-5H-[1,4]thiazino[2,3,4-ij]quinazolin-5-one]  96%

Same assay, conditions: 10 μM, 1 h; Table 4

With `C=CC(=O)N1CCN(c2nc(=O)n3c4c(c(-c5ccc(F)cc5F)c(C(F)(F)F)cc24)SC[C@@H]3CN2CCN(CC(F)F)CC2)[C@@H](C)C1` [Example 19, (3S)-7-((S)-4-acryloyl-2-methylpiperazin-1-yl)-3-((4-(2,2-difluoroethyl)piperazin-1-yl)methyl)-10-(2,4-difluorophenyl)-9-(trifluoromethyl)-2H-[1,4]thiazino[2,3,4-ij]quinazolin-5(3H)-one] the “% CAF @ 10 μM, 1 h” value was 96%.
